Data published in publication PMC7617978, “Anti-trypanosomal quinazolines targeting lysyl-tRNA synthetases show partial efficacy in a mouse model of acute Chagas disease” (Science translational medicine, 2025).

Columns and labels:
CYP2D6 = CYP2D6 (Homo sapiens, UniProt P10635); test: In vitro CYP inhibition, 2D6; assay type: in vitro ADME
Description: Compounds were screened for CYP inhibition activity using the protocol established by TCG Lifesciences (India). The activity of five CYP450 isoforms: 1A2; 2C9; 2D6, 3A4; and 2C19 was monitored in the presence of test or control (miconazole) compounds at 10 µM. Reactions were terminated after 10 min (30 min for CYP2C19) by the addition of acetonitrile, centrifuged and analysed via LC-MS/MS. […]

Plasma protein binding = assay type: in vitro ADME; conditions: read-out: bound to plasma proteins (converted)
Description: The propensity of DMU759 to bind to plasma proteins was determined as previously described ([21]).

[1] = test system: Lysyl-tRNA synthetase 1 (KRS1); test: Isothermal proteome profiling (iTPP), TcKRS1; assay type: binding, T. cruzi; conditions: KRS1 (C4B63_45g239); lysate, compound at 10× EC50, 48°C
Description: (§1) T. cruzi epimastigote lysates were generated as previously described ([29]). Isothermal TPP assays were performed as previously described ([25]). […] Data processing and analyses were performed as previously described ([25]), except proteins were identified via searches against the T. cruzi Dm28C proteome (tritrypdb.org, version 49).

[2] = test system: T. cruzi epimastigote lysates; test: Isothermal proteome profiling (iTPP), other hit proteins; assay type: binding; conditions: 10× EC50, 48°C
Description: as §1

[3] = 19S proteasome regulatory subunit (C4B63_14g170)
[4] = Conserved hypothetical protein (C4B63_42g251)
[5] = Mitochondrial processing peptidase, beta subunit (C4B63_3g1101)
[6] = Ribosomal protein S26 (C4B63_6g2300)
[7] = cysteine peptidase, Clan CA, family C2 (C4B63_22g162)

Chain of CYP2D6 (P10635 whole entry, canonical isoform): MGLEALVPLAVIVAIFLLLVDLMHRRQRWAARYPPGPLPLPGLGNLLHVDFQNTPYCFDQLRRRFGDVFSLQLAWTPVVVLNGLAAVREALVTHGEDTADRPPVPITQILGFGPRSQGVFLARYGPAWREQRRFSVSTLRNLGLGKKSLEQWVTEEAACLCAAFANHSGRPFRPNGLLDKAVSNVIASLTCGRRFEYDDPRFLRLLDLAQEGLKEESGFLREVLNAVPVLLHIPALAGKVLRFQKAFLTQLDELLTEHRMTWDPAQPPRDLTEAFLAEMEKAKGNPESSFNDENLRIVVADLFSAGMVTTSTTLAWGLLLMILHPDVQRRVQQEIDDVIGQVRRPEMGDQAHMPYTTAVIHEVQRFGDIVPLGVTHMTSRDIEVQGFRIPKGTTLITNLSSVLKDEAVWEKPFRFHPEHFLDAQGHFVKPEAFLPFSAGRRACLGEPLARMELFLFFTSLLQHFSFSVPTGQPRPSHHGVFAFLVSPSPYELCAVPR

## Cc1nc(N)c2c(F)c(F)c(SC3CCCCC3)c(F)c2n1 [DMU759, 7-(Cyclohexylthio)-5,6,8-trifluoro-2-methylquinazolin-4-amine]
CYP2D6
  inhibition at 10 min, 10 µM: 14.5 ± 2.5%
Plasma protein binding
  fraction unbound: 0.11
[1]
  Abundance Log2 fold change Rep 1: 2.26
  Abundance Log2 fold change Rep 2: 1.94
[2]; [3]
  Abundance Log2 fold change Rep 1: -2.64
  Abundance Log2 fold change Rep 2: -3.79
[2]; [4]
  Abundance Log2 fold change Rep 1: -2.25
  Abundance Log2 fold change Rep 2: -1.75
[2]; [5]
  Abundance Log2 fold change Rep 1: -2.04
  Abundance Log2 fold change Rep 2: -2.35
[2]; P-type H+-ATPase (C4B63_116g3)
  Abundance Log2 fold change Rep 1: -2.27
  Abundance Log2 fold change Rep 2: -1.74
[2]; [6]
  Abundance Log2 fold change Rep 1: -1.59
  Abundance Log2 fold change Rep 2: -1.80
[2]; [7]
  Abundance Log2 fold change Rep 1: -1.58
  Abundance Log2 fold change Rep 2: -2.80
